Reference: patent publication US20200371122A1, “BIOMARKER FOR SENESCENT CELLS” (Buck Institute for Research on Aging, priority 2017, published 2020)

Experiments:
Format in all cases: cell-based, human
PPARγ = PPARγ luciferase reporter in irradiated IMR-90 fibroblasts; conditions: senescent cells, 10 days
Source text: Lentiviral NF-κB reporter constructs (SA Biosciences) and baculoviral PPAR gamma constructs (Signosis) were transduced into proliferating cells. Following treatment, luciferase was extracted using Passive Lysis Buffer (Promega) and analyzed using a commercially available kit (Promega) using a Perkin-Elmer Victor™ X3 luminometer.

[1] = system: naïve nonsenescent IMR-90 fibroblasts; test: Conditioned media from senescent cells applied to naive IMR-90 fibroblasts (Col1a2, ACTA2 qPCR)
Description: RNA was extracted from cells or tissues using commercially available kits (Isolate II—Bioline for cells; Direct-zol—Zymo for tissues) according to the manufacturer's instructions. cDNA synthesis was performed using a High Capacity cDNA Reverse Transcription Kit (Thermo Fisher) according to the manufacturer's instructions. Quantitative PCR was performed on a LightCycler 480 II (Roche) using primers and probes designed for the Universal Probe Library. Primers and probes used for human transcripts were ACTB: 5′-CCAACCGCGAGAAGATGA (SEQ ID NO:1), 5′-TCCATCACGATGCCAGTG (SEQ ID NO:2), Probe #64; TUBA: 5′-cttcgtctccgccatcag (SEQ ID NO:3), 5′-ttgccaatctggacacca (SEQ ID NO:4), Probe #58; ALOX5: 5′-[…] (SEQ ID NO:5), 5′-[…] (SEQ ID NO:6), Probe #64; ALOX5AP: 5′-ggtctgcggggctacttt (SEQ ID NO:7), 5′-[…] (SEQ ID NO:8), Probe #18; ALOX12: 5′-[…] (SEQ ID NO:9), 5′-agccaggtcgtcaggag (SEQ ID NO:10), Probe #32; ALOX15: 5′-[…] (SEQ ID NO:11), 5′-[…] (SEQ ID NO:12), Probe #76; ALOX15B: 5′-[…] (SEQ ID NO:13), 5′-actgggaggcgaagaagg (SEQ ID NO:14), Probe #51; AKR1C1: 5′-catgcctgtcctgggattt (SEQ ID NO:15), 5′-[…] (SEQ ID NO:16), Probe #49; AKR1C2: 5′-ctatgcgcctgcagaggt (SEQ ID NO:17), 5′-[…] (SEQ ID NO:18), Probe #31; AKR1C3: 5′-[…] (SEQ ID NO:19), 5′-[…] (SEQ ID NO:20), Probe #78; CYSLTR2: 5′-[…] (SEQ ID NO:21), 5′-[…] (SEQ ID NO:22), Probe #18; DPEP1: 5′-gacgtcctgaggctggtg (SEQ ID NO:23), 5′-[…] (SEQ ID NO:24), Probe #9 (SEQ ID NO:25), ELOVL2: 5′-[…] (SEQ ID NO:26), 5′-[…] (SEQ ID NO:27), Probe #53; ELOVL4: 5′-catttggcccatggattc (SEQ ID NO:28), 5′-[…] (SEQ ID NO:29), Probe #31; ELOVL5: 5′-cccttccatgcgtccata (SEQ ID NO:30), 5′-[…] (SEQ ID NO:31), Probe #31; EPHX2: 5′-ttctgctggacaccctgaa (SEQ ID NO:32), 5′-[…] (SEQ ID NO:33), Probe #45; GPX4: 5′-ttcccgtgtaaccagttcg (SEQ ID NO:34), 5′-[…] (SEQ ID NO:35), Probe #36; LTA4H: 5′-ctgctctcacggtccagtc (SEQ ID NO:36), 5′-[…] (SEQ ID NO:37), Probe #64; LTBR2: 5′-[…] (SEQ ID NO:38), 5′-[…] (SEQ ID NO:39), Probe #33; LTC4S: 5′-[…] (SEQ ID NO:40), 5′-[…] (SEQ ID NO:41), Probe #18; PTGDS: 5′-[…] (SEQ ID NO:42), 5′-[…] (SEQ ID NO:43), Probe #36; PTGES: 5′-agagatgcctgcccacag (SEQ ID NO:44), 5′-tggccaccacgtacatctt (SEQ ID NO:45), Probe #4; PTGES2: 5′-[…] (SEQ ID NO:46), 5′-[…] (SEQ ID NO:47), Probe #49; PTGES3 (SEQ ID NO:48), 5′-[…] (SEQ ID NO:49), 5′-[…] (SEQ ID NO:50), Probe #48; PTGIS: 5′-[…] (SEQ ID NO:51), 5′-[…] (SEQ ID NO:52), Probe #45; PTGR1: 5′-atgatggggcagcaagtg (SEQ ID NO:53), 5′-cccatcagaaatggagtgc (SEQ ID NO:54), Probe #64; PTGS1: 5′-[…] (SEQ ID NO:55), 5′-gtggtggtccatgttcctg (SEQ ID NO:56), Probe #81; PTGS2: 5′-gatccccagggctcaaac (SEQ ID NO:57), 5′-[…] (SEQ ID NO:58), Probe #61; TBXAS1: 5′-[…] (SEQ ID NO:59), 5′-tgcctcccgtgtgaatct (SEQ ID NO:60), Probe #73; AREG: 5′-[…] (SEQ ID NO:61), 5′-[…] […]

IMR-90 fibroblasts = test: Oncogenic ras-induced senescence of IMR-90 fibroblasts; conditions: RasV12 lentivirus, 7 days treatment
Source text: Senescence was induced by irradiation with 10 Gy of ionizing radiation. Non-senescent controls (proliferating or quiescent) were placed in the irradiator for an identical period of time without turning on the irradiator. Oncogene-induced senescence was induced via lentiviral overexpression of HRAS^V12, as described previously (Wiley et al. (2016) Cell Metab. 23: 303-314).

Compound | PPARγ activation reduced (PPARγ) [%] | decline of ACTA2 induction at Day 20 relative to Day 2 ([1]; Day 20 CM) | collagen expression induced by CM from senescent cells ([1]; Day 2 CM, with or without TGF-beta, donor cells treated 24 h) | collagen expression induced by CM from senescent cells ([1]; Day 20 CM in the presence of TGF-beta) | smooth muscle actin expression (ACTA2) ([1]; regardless of time point) | ras-induced senescence (IL-6 secretion, EdU incorporation, colony formation) (IMR-90 fibroblasts)
CS(=O)(=O)Nc1ccc([N+](=O)[O-])cc1OC1CCCCC1 [NS-398] | ~50 | abrogated this decline |  |  |  | 
CC(c1cc2ccccc2s1)N(O)C(N)=O (stereo not drawn) [zileuton] |  |  | prevented this effect | again prevented | no effect | blunting
